Experimental data as given in patent US20260007679A1, “METHODS OF TREATING CANCER USING 3-(4-((4-(MORPHOLINOMETHYL)BENZYL)OXY)-1-OXOISOINDOLIN-2-YL)PIPERIDINE-2,6-DIONE” (Celgene Corporation, priority 2012, published 2026).
pIC50: −log10 of the molar value. Several values for one entry are separate records, joined by “and”; a condition that tells them apart may be missing. Equal entries are not always repeated.

Columns and labels:
NFκB p65 and p50 = experiment: NFκB activity in DLBCL cells (Active Motif transcription factor assay); type: cell-based; conditions: 1 μM and 10 μM; 2 days; ABC-DLBCL lines such as TMD8 and OCI-Ly10
Protocol: DLBCL cells were treated with test compound or an IKK1/2 dual inhibitor (used as a positive inhibitor control) for 2 days. NFκB activity was examined with Active Motif transcription factor assay using nuclear extracts from cells following treatment.

[1] = test system: WSU-DLCL2 DLBCL xenograft; experiment: WSU-DLCL2 DLBCL xenograft model
[2] = test system: lenalidomide resistant H929 subclones; experiment: Proliferation and viability by 7-AAD staining; type: cell-based
Protocol: The Revlimid-resistant or -sensitive cell lines were treated with test compounds for 5 days, and then cell proliferation and viability were assessed by 7-aminoactinomycin D (7-AAD) staining.
CRBN ubiquitination was measured in HEK293T cells, which were transfected with an amino-terminal His-biotin-tagged CRBN construct, then preincubated with compounds for one hour followed by treatment with the MG132 proteasome inhibitor (to arrest degradation of ubiquitinated proteins). Cells were lysed and processed to measure CRBN ubiquitination by SDS-PAGE and immunoblot analysis using an anti-ubiquitin antibody. Cell proliferation studies were conducted in lenalidomide-sensitive and refractory multiple myeloma cells. […] T-cell costimulation was measured in purified primary human T cells stimulated using immobilized anti-CD3 antibody in cell culture for 2 days, and cytokine secretion was measured by ELISA.

[3] = test system: Revlimid-resistant NCI-H929 R2-10; experiment: Proliferation and viability by 7-AAD staining; type: cell-based; conditions: Homo sapiens, NCI-H929, 120 h; R2-10; 5 days; read-out: IC50, proliferation
Pharmacokinetics in rat = type: in vivo; conditions: SD Rat, 67% S-enantiomer, 33% R-enantiomer
Farage DLBCL cells = experiment: 3 day 3H-thymidine incorporation assay; type: cell-based
[4] = Pharmacokinetics in monkey; type: in vivo; conditions: >99.5% S-enantiomer, <0.5% R-enantiomer
WSU-DLCL2 cell line = experiment: Cell cycle analysis; type: cell-based
Protocol: (§1) Cell Cycle Analysis: Cells were treated with DMSO or an amount of a compound provided herein for 48 hours. Propidium iodide staining for cell cycle was performed using CycleTEST PLUS (Becton Dickinson) according to manufacturer's protocol. Following staining, cells were analyzed by a FACSCalibur flow cytometer using ModFit LT software (Becton Dickinson).

DoHH2 cell line = experiment: Cell cycle analysis; type: cell-based
Protocol: as §1

Rec-1 MCL cells = experiment: 3 day 3H-thymidine incorporation assay; type: cell-based
[5] = test system: Revlimid-resistant NCI-H929 R1-10; experiment: Proliferation and viability by 7-AAD staining; type: cell-based; conditions: Homo sapiens, NCI-H929, 120 h; R1-10; 5 days; read-out: IC50, proliferation
WSU-DLCL2 = experiment: 5 day 3H thymidine incorporation; type: cell-based; conditions: Homo sapiens, WSUDLCL2; GCB subtype
Protocol: (§2) Cells were treated with the tested compound for 5 days at 37° C.; proliferation of cells was determined using ^3H-thymidine incorporation method.

TMD8 = experiment: 5 day 3H thymidine incorporation; type: cell-based; conditions: Homo sapiens, ABC subtype
Protocol: as §2

OCI-Ly19 = experiment: 5 day 3H thymidine incorporation; type: cell-based; conditions: Homo sapiens, GCB subtype
Protocol: as §2

OCI-Ly10 = experiment: 5 day 3H thymidine incorporation; type: cell-based; conditions: Homo sapiens, ABC subtype
Protocol: as §2

SUDHL4 = experiment: 5 day 3H thymidine incorporation; type: cell-based; conditions: Homo sapiens, SU-DHL-4; GCB subtype
Protocol: as §2

U2932 = experiment: 5 day 3H thymidine incorporation; type: cell-based; conditions: Homo sapiens, ABC subtype
Protocol: as §2

OCI-Ly3 = experiment: 5 day 3H thymidine incorporation; type: cell-based; conditions: Homo sapiens, ABC subtype
Protocol: as §2

Karpas-1106P = experiment: 5 day 3H thymidine incorporation; type: cell-based; conditions: Homo sapiens, PMBL
Protocol: as §2

RIVA = experiment: 5 day 3H thymidine incorporation; type: cell-based; conditions: ABC subtype
Protocol: as §2

[6] = test system: Revlimid-resistant NCI-H929 R3-10; experiment: Proliferation and viability by 7-AAD staining; type: cell-based; conditions: Homo sapiens, NCI-H929, 120 h; R3-10; 5 days; read-out: IC50, proliferation
DoHH2 FL cells = experiment: 3 day 3H-thymidine incorporation assay; type: cell-based
[7] = test system: DoHH2 Follicular Lymphoma xenograft; experiment: DoHH2 Follicular Lymphoma xenograft model; type: in vivo, mouse
[8] = Sprague-Dawley, plasma, 10 mg/kg, 10 mpk po
[9] = 2 mg/kg monotherapy, 91% S-enantiomer, 9% R-enantiomer
[10] = 3 mg/kg monotherapy, 84% S-enantiomer, 16% R-enantiomer
[11] = 3 mg/kg with Rituxan 1 mg/kg, 84% S-enantiomer, 16% R-enantiomer
[12] = 30 mg/kg monotherapy, Compound I-S: 84% S-enantiomer, 16% R-enantiomer
[13] = 30 mg/kg with Rituxan 1 mg/kg, Compound I-S: 84% S-enantiomer, 16% R-enantiomer
[14] = 40 mg/kg monotherapy, Compound I-S: 91% S-enantiomer, 9% R-enantiomer

SMILES: O=C1CCC(N2Cc3c(OCc4ccc(CN5CCOCC5)cc4)cccc3C2=O)C(=O)N1 (racemic) [Compound I, 3-(4-((4-(morpholinomethyl)benzyl)oxy)-1-oxoisoindolin-2-yl)piperidine-2,6-dione]
- NFκB p65 and p50 activity (NFκB p65 and p50): significantly inhibits
- Tumor Free Survival on Day 44 ([1]; 3 mg/kg in combination with Rituxan 2 mg/kg iv qw): 6/10
- Tumor Free Survival on Day 44 ([1]; 30 mg/kg in combination with Rituxan 2 mg/kg iv qw): 6/10
- tumor response in combination with Rituxan ([1]; all combination treatment groups, complete regression = tumor volume <25 mm^3): complete regression

SMILES: O=C1CC[C@H](N2Cc3c(OCc4ccc(CN5CCOCC5)cc4)cccc3C2=O)C(=O)N1 [Compound I-S, (S)-3-(4-((4-(morpholinomethyl)benzyl)oxy)-1-oxoisoindolin-2-yl)piperidine-2,6-dione]
- activity against Revlimid-resistant cell lines [2]: active
- pIC50 ([2]; Homo sapiens, NCI-H929, 120 h, read-out: IC50 for inhibition of proliferation): 5.80 to 6.29
- pIC50 [3]: 5.92
- F (Pharmacokinetics in rat; 10 mpk po): 52%
- AUC (Pharmacokinetics in rat; Sprague-Dawley, plasma, 2 mg/kg, 2 mpk iv): 890 ng·h/mL and 2 µM·h
- clearance (Pharmacokinetics in rat; Sprague-Dawley, plasma, 2 mg/kg, 2 mpk iv, read-out: CLp): 37 mL/min/kg
- Vd (Pharmacokinetics in rat; Sprague-Dawley, plasma, 2 mg/kg, 2 mpk iv, read-out: Vss): 2.9 L/kg
- AUC (Pharmacokinetics in rat; [8]): 2400 ng·h/mL and 5.2 µM·h
- Cmax (Pharmacokinetics in rat; [8]): 1500 ng/mL and 3.3 µM
- pIC50 (Farage DLBCL cells; Farage, 72 h, 3 day, read-out: anti-proliferative IC50): 6.55
- combination effect, fractional product method (Farage DLBCL cells; combined with Rituxan): additive to synergistic manner
- F ([4]; 1 mpk po): 20%
- AUC ([4]; plasma, 0.5 mg/kg, 0.5 mpk iv): 490 ng·h/mL and 1.1 µM·h
- clearance ([4]; plasma, 0.5 mg/kg, 0.5 mpk iv, read-out: CLp): 8.4 mL/min/kg
- Vd ([4]; plasma, 0.5 mg/kg, 0.5 mpk iv, read-out: Vss): 1.2 L/kg
- AUC ([4]; plasma, 1 mg/kg, 1 mpk po): 390 ng·h/mL and 0.87 µM·h
- Cmax ([4]; plasma, 1 mg/kg, 1 mpk po): 140 ng/mL and 310 nM
- cell cycle effect (WSU-DLCL2 cell line): induced G1 arrest
- cell cycle effect (DoHH2 cell line): induced G1 arrest
- pIC50 (Rec-1 MCL cells; Homo sapiens, Rec1, 72 h, 3 day, read-out: anti-proliferative IC50): 7.57
- combination effect, fractional product method (Rec-1 MCL cells; combined with Rituxan): additive manner
- pIC50 [5]: 5.88
- pIC50 (WSU-DLCL2): 6.62
- pIC50 (TMD8): 7.23
- pIC50 (OCI-Ly19): < 5.00
- pIC50 (OCI-Ly10): 9.05
- pIC50 (SUDHL4): 5.80
- pIC50 (U2932): 8.30
- pIC50 (OCI-Ly3): < 5.00
- pIC50 (Karpas-1106P): 6.55
- pIC50 (RIVA): 5.64
- pIC50 [6]: 6.29
- pIC50 (DoHH2 FL cells; Homo sapiens, DOHH-2, 72 h, 3 day, read-out: anti-proliferative IC50): 7.40
- combination effect, fractional product method (DoHH2 FL cells; combined with Rituxan): synergistic manner
- % TGD ((T − C)/C) [7, 9]: 33%
- % TGI at D12 (T/C) [7, 9]: 49%
- tumor growth, combination study ([7]; 3 mg/kg in combination with Rituxan): more efficacious than Revlimid at 30 mg/kg in combination with Rituxan
- % TGD ((T − C)/C) [7, 10]: 13%
- % TGI at D12 (T/C) [7, 10]: 27%
- % TGD ((T − C)/C) [7, 11]: 57%
- % TGI at D12 (T/C) [7, 11]: 71%
- % TGD ((T − C)/C) [7, 12]: 21%
- % TGI at D12 (T/C) [7, 12]: 35%
- % TGD ((T − C)/C) [7, 13]: 56%
- % TGI at D12 (T/C) [7, 13]: 50%
- % TGD ((T − C)/C) [7, 14]: 52%
- % TGI at D12 (T/C) [7, 14]: 67%
- tumor growth, monotherapy study ([7]; 2 and 40 mg/kg): significantly inhibits tumor growth
